The text below walks through data of patent publication US20170342021A1, “RAS-INHIBITING INDENYL ACETAMIDE COMPOUNDS, COMPOSITIONS, AND USES” (ADT Pharmaceuticals, Inc., priority 2014, published 2017).

The subject of assay [1] is HCT-116 colon tumor cells expressing mutant Ras, compared to HT-29 expressing wild-type Ras. In words: Ras selectivity by growth inhibition, HT-29 versus HCT-116. The assay is classed as cell-based, human. The settings on record: ratio of IC50 in HT-29 to IC50 in HCT-116; 5000 cells/well, 96-well plates, Cell Titer Glo. How it is done: (§1) This example illustrates cell growth assays that can be employed in the present invention. Cells can include A-549, HT-29, MDA-MB-231, Colo-205, Caco2, HCT-116, SW-480, and DLD-1 human cancer cells obtained from the American Type Culture Collection (ATCC). Human tumor cells are cultured using standard methods in RPMI-1640 growth medium supplemented with 5% fetal bovine serum (FBS). Normal rat kidney (NRK) and Ki-Ras transformed NRK cells (K-NRK) are obtained from ATCC, and were cultured according to supplier recommendations. CellTiter-Glo ATP cell growth assay reagents are obtained from Promega and used according to the manufacturer's protocol. Inhibitors of EGFR, Raf, and MEK are obtained from Selleck Chemicals. Cells are plated at a density of 5,000 cells per well in 96-well microplates or 1,250 cells per well in 384-well plates, and allowed to attach for at least 4 h. Test compounds are dissolved in dimethyl sulfoxide (DMSO), and this working stock is further diluted in growth medium for addition to cell cultures. Serial dilutions of the test compound are prepared in growth medium containing an equal amount of DMSO not exceeding 0.2% final concentration. Each compound concentration is tested in at least 3 separate samples per cell line. At the end of a 3-day treatment period, growth inhibition is analyzed using a bioluminescent assay of ATP concentration (Promega CellTiter-Glo) according to the manufacturer's protocol. The resulting luminescence is measured using the luminescence cartridge of the Molecular Devices Spectramax Paradigm microplate reader. The relative growth inhibition for each sample is determined by comparison with the values obtained for vehicle treated control samples. Growth inhibition values are plotted with the GraphPad Prism5 software using the 4-parameter logistic fit to obtain IC50 values, which corresponds to the growth inhibitory potency of the compound.
(§2) This example illustrates the use of well-established human colon tumor cell lines with widely divergent Ras activation status to determine selectivity values for exemplary compounds of the present invention. Cell lines thus employed in this example were HCT-116, a highly Ras-driven line expressing mutant Ras, SW-480, another strongly Ras-driven line expressing mutant Ras, and HT-29, a non-Ras-driven line expressing wild-type, non-mutated Ras. Cells were plated at 5000 cells/well in 96-well plates, and viable cell numbers were measured using the Cell Titer Glo ATP luminescence assay (Promega). FIGS. 5A-5F show results of these studies for exemplary compounds 054, 058, 057, 055, and 056, respectively. The calculated HT-29/HCT-116 selectivity values for the first five of the aforementioned compounds were 14, 13, 18, 11 and 5, respectively. The calculated HT-29/SW-480 selectivity values for the aforementioned compounds were 16, 16, 19, 13 and 5, respectively.

Assay [2] has as its system SW-480 colon tumor cells expressing mutant Ras, compared to HT-29 expressing wild-type Ras. In words: Ras selectivity by growth inhibition, HT-29 versus SW-480. The assay is classed as cell-based, human. To be noted: ratio of IC50 in HT-29 to IC50 in SW-480; 5000 cells/well, 96-well plates, Cell Titer Glo. The procedure: as §1, §2
Background: ATP-based viability assays read luminescence as a measure of living cells.

The test system of assay [3] is HCT-116. Description: CellTiter-Glo growth inhibition, HCT-116. To be noted: ten-fold serial dilutions, ras-mutant line. The format is cell-based, human. How it is done:
as §1, with “Cells can include A-549, HT-29, MDA-MB-231, Colo-205, Caco2, HCT-116, SW-480, and DLD-1 human cancer cells obtained from the American Type Culture Collection (ATCC). Human tumor cells are cultured using standard methods in RPMI-1640 growth medium supplemented with 5% fetal bovine serum (FBS).” left out
(§3) Cells were seeded in 384-well plates and allowed to attach. Ten-fold serial dilutions of compounds were tested. Each compound concentration was tested in at least 3 separate samples per cell line.

The subject of assay [4] is DLD-1. In words: CellTiter-Glo growth inhibition, DLD-1. The assay is classed as cell-based, human. The settings on record: ten-fold serial dilutions, ras-mutant line. The procedure:
as §1, with “Cells can include A-549, HT-29, MDA-MB-231, Colo-205, Caco2, HCT-116, SW-480, and DLD-1 human cancer cells obtained from the American Type Culture Collection (ATCC). Human tumor cells are cultured using standard methods in RPMI-1640 growth medium supplemented with 5% fetal bovine serum (FBS).” left out
as §3

For assay [5], the system named is SW-480. In words: CellTiter-Glo growth inhibition, SW-480. The assay is classed as cell-based, human. To be noted: ten-fold serial dilutions, ras-mutant line. How it is done: as §1, with “Cells can include A-549, HT-29, MDA-MB-231, Colo-205, Caco2, HCT-116, SW-480, and DLD-1 human cancer cells obtained from the American Type Culture Collection (ATCC). Human tumor cells are cultured using standard methods in RPMI-1640 growth medium supplemented with 5% fetal bovine serum (FBS).” left out
as §3

In assay [6] the test system is Caco-2. In words: CellTiter-Glo growth inhibition, Caco-2. The format is cell-based, human. The settings on record: ten-fold serial dilutions, wild type Ras line. How it is done:
as §1, with “Cells can include A-549, HT-29, MDA-MB-231, Colo-205, Caco2, HCT-116, SW-480, and DLD-1 human cancer cells obtained from the American Type Culture Collection (ATCC). Human tumor cells are cultured using standard methods in RPMI-1640 growth medium supplemented with 5% fetal bovine serum (FBS).” left out
as §3

For assay [7], the system named is HT-29. Description: CellTiter-Glo growth inhibition, HT-29. To be noted: ten-fold serial dilutions, wild type Ras line. The format is cell-based, human. How it is done: as §1, with “Cells can include A-549, HT-29, MDA-MB-231, Colo-205, Caco2, HCT-116, SW-480, and DLD-1 human cancer cells obtained from the American Type Culture Collection (ATCC). Human tumor cells are cultured using standard methods in RPMI-1640 growth medium supplemented with 5% fetal bovine serum (FBS).” left out
as §3

Assay [8] relates to COLO-205. In words: CellTiter-Glo growth inhibition, COLO-205. To be noted: ten-fold serial dilutions, wild type Ras line, lowest level of active Ras. The format is cell-based, human. How it is done:
as §1, with “Cells can include A-549, HT-29, MDA-MB-231, Colo-205, Caco2, HCT-116, SW-480, and DLD-1 human cancer cells obtained from the American Type Culture Collection (ATCC). Human tumor cells are cultured using standard methods in RPMI-1640 growth medium supplemented with 5% fetal bovine serum (FBS).” left out
as §3

In assay [9] the test system is cells expressing oncogenic H-Ras. To be noted: literature value, NIH probe report, cited from earlier work.
In assay [10] the test system is panel of human colorectal cancer cell lines. Description: Growth inhibition by known Ras pathway inhibitors across the cell line panel. The assay is classed as cell-based. To be noted: comparison of potency across cell lines with differing Ras activation. How it is done: This example illustrates cell growth assays that can be employed in the present invention. Cells can include A-549, HT-29, MDA-MB-231, Colo-205, Caco2, HCT-116, SW-480, and DLD-1 human cancer cells obtained from the American Type Culture Collection (ATCC). Human tumor cells are cultured using standard methods in RPMI-1640 growth medium supplemented with 5% fetal bovine serum (FBS). Normal rat kidney (NRK) and Ki-Ras transformed NRK cells (K-NRK) are obtained from ATCC, and were cultured according to supplier recommendations. CellTiter-Glo ATP cell growth assay reagents are obtained from Promega and used according to the manufacturer's protocol. […] At the end of a 3-day treatment period, growth inhibition is analyzed using a bioluminescent assay of ATP concentration (Promega CellTiter-Glo) according to the manufacturer's protocol. The resulting luminescence is measured using the luminescence cartridge of the Molecular Devices Spectramax Paradigm microplate reader. The relative growth inhibition for each sample is determined by comparison with the values obtained for vehicle treated control samples. […]
This example illustrates the levels of Ras activation in different colorectal cancer cells. […] The ratio of the intensity of the Ras to GAPDH bands was expressed as relative Ras activation, which is presented above each lane in FIG. 4. […]

Setting [11] is: Homo sapiens, HCT-116, 384-well plates.
The mark [12] stands for this setting: Homo sapiens, DLD-1, 384-well plates.
The mark [13] stands for this setting: Homo sapiens, SW480, 384-well plates.
Setting [14] is: Homo sapiens, Caco-2, 384-well plates.
The mark [15] stands for this setting: Homo sapiens, HT-29, 384-well plates.
Where [16] appears, read: Homo sapiens, COLO 205, 384-well plates.

`COc1cc(/C=C2/C(C)=C(CC(=O)Nc3ccc(Cl)c(Cl)c3)c3cc(F)ccc32)cc(OC)c1O` [Compound 056, (Z)—N-(3,4-dichlorophenyl)-2-(5-fluoro-1-(4-hydroxy-3,5-dimethoxybenzylidene)-2-methyl-1H-inden-3-yl)acetamide]: the HT-29/HCT-116 selectivity value in assay [1] is 5. Moreover, in [2], the HT-29/SW-480 selectivity value is given as 5.
One may read the IC50 as the midpoint of a concentration-inhibition curve. On to `OCCn1cc(-c2ccc3c(c2)CC/C3=N\O)c(-c2ccncc2)n1` [GDC0879], for which the IC50 in assay [3] (setting [11]) was 8.14 µM; in assay [4] (setting [12]), 7.64 µM; in [5] (setting [13]), over 20 µM; in assay [6] (setting [14]) it was over 20 µM; in assay [7] (setting [15]), at least 23.6 µM; in [8] (setting [16]), 0.0758 µM.
On to `COc1cc(/C=C2/C(C)=C(CC(=O)Nc3ccc(Br)cc3)c3cc(F)ccc32)cc(OC)c1O` [Compound 057, (Z)—N-(4-bromophenyl)-2-(5-fluoro-1-(4-hydroxy-3,5-dimethoxybenzylidene)-2-methyl-1H-inden-3-yl)acetamide], for which the HT-29/HCT-116 selectivity value in assay [1] is on record as 18. Besides, in assay [2], the HT-29/SW-480 selectivity value is 19.
In the case of `Cc1onc(C(=O)N2CCN(C(c3ccc(Cl)cc3)c3ccc(Cl)cc3)CC2)c1[N+](=O)[O-]` [ML210], the “selectivity versus cells lacking oncogenic Ras” value in [9] is recorded as 4 fold. The IC50 in assay [9] (read-out: IC50, growth of cells expressing mutant Ras) is 0.071 µM.
For `COc1cc(/C=C2/C(C)=C(CC(=O)Nc3cccc(Br)c3)c3cc(F)ccc32)cc(OC)c1O` [Compound 058, (Z)—N-(3-bromophenyl)-2-(5-fluoro-1-(4-hydroxy-3,5-dimethoxybenzylidene)-2-methyl-1H-inden-3-yl)acetamide], the HT-29/HCT-116 selectivity value in assay [1] is 13. The HT-29/SW-480 selectivity value in assay [2] was 16.
On to `COc1cc(/C=C2/C(C)=C(CC(=O)Nc3ccc(Cl)cc3)c3cc(F)ccc32)cc(OC)c1O` [Compound 055, (Z)—N-(4-chlorophenyl)-2-(5-fluoro-1-(4-hydroxy-3,5-dimethoxybenzylidene)-2-methyl-1H-inden-3-yl)acetamide], for which, in [1], the HT-29/HCT-116 selectivity value came out at 11. Moreover, in [2], the HT-29/SW-480 selectivity value was 13.
For `CCCS(=O)(=O)Nc1ccc(F)c(C(=O)c2c[nH]c3ncc(-c4ccc(Cl)cc4)cc23)c1F` [Vemurafenib], the IC50 came to 5.99 µM in [3] (setting [11]); 5.62 µM in assay [4] (setting [12]); 6.86 µM in assay [5] (setting [13]); 5.2 µM in assay [6] (setting [14]); 5.1 µM in assay [7] (setting [15]); 0.151 µM in [8] (setting [16]).
Turning to `O=C1Nc2ccc(I)cc2/C1=C/c1cc(Br)c(O)c(Br)c1` [GW5074], the IC50 is 15.8 µM in assay [3] (384-well plates); 7.75 µM in assay [4] (384-well plates); 8.07 µM in assay [5] (384-well plates); over 20 µM in assay [6] (384-well plates); 19.1 µM in assay [7] (384-well plates); 7.1 µM in [8] (384-well plates). Moreover, in assay [10], the “selectivity with regard to Ras activation” value is “did not show selectivity for cell lines expressing activated Ras”.
Regarding `Cn1cnc2c(F)c(Nc3ccc(Br)cc3Cl)c(C(=O)NOCCO)cc21` [Selumetinib], the IC50 was 4.11 µM in [3] (setting [11]); at least 20.4 µM in assay [4] (setting [12]); over 20 µM in assay [5] (setting [13]); over 20 µM in assay [6] (setting [14]); 0.854 µM in assay [7] (setting [15]); 0.0046 µM in [8] (setting [16]).
Take `COc1cc(/C=C2/C(C)=C(CC(=O)Nc3ccc(F)cc3)c3cc(F)ccc32)cc(OC)c1O` [Compound 054, (Z)-2-(5-fluoro-1-(4-hydroxy-3,5-dimethoxybenzylidene)-2-methyl-1H-inden-3-yl)-N-(4-fluorophenyl)acetamide]: the HT-29/HCT-116 selectivity value in assay [1] amounted to 14. Moreover, in [2], the HT-29/SW-480 selectivity value worked out at 16.
